Experimental data reported in patent US8022617B2, “Organic compound, charge-transporting material, composition for charge-transporting material and organic electroluminescent device” (Mitsubishi Chemical Corporation, priority 2005, dated 2011).

Assay: Solubility in toluene
Format: physicochemical
Conditions: solvent toluene
Description: As described below, an aromatic hydrocarbon is preferred as a solvent contained in a composition for charge-transporting material. Toluene is a typical aromatic hydrocarbon and is used as an index of the solubility of the organic compound (charge-transporting material) in the present invention.

| SMILES | dissolved in toluene in an amount of [percent by weight] |
| --- | --- |
| O=c1n(-c2ccc(N(c3ccccc3)c3ccc(-c4ccccc4)cc3)cc2)c2ccccc2n1-c1ccc(N(c2ccccc2)c2ccc(-c3ccccc3)cc2)cc1 [Target Compound 5] | ≥ 5.0 |
| O=c1n(-c2cccc(-n3c4ccccc4c4ccccc43)c2)c2cccnc2n1-c1cccc(-n2c3ccccc3c3ccccc32)c1 [Target Compound 16] | ≥ 3 |
| O=c1n(-c2cccc(-c3ccccc3)c2)c2ccccc2n1-c1cccc(-c2ccccc2)c1 [Target Compound 6] | ≥ 5.0 |
| O=c1n(-c2cccc(-n3c4ccccc4c4ccncc43)c2)c2ccccc2n1-c1cccc(-n2c3ccccc3c3ccncc32)c1 [Target Compound 12] | ≥ 3 |
| O=c1n(-c2cccc(-n3c4ccccc4c4ccccc43)c2)c2ccccc2n1-c1cccc(-n2c3ccccc3c3ccccc32)c1 [Target Compound 4] | ≥ 3 |
